# Results as given in US20250171498A1, “ANTIBIOTIC COMPOUNDS, FORMULATIONS AND METHODS OF USE” (UNIVERSITEIT LEIDEN, priority 2022, published 2025).
# Where a SMILES comes first, the peptide text is derived from it. Bridges are numbered along the chain shown (N, C = ends). [ ]: non-standard residue; d: D form. The star is where a group is joined. S(2-cyclohexylethyl) = C1CCC(CCS*)CC1; S(3-Cl-benzyl) = Clc1cccc(CS*)c1; S(3-Methylbutyl) = CC(C)CCS*; dDab = NCC[C@@H](N)C(=O)O; dDap = NC[C@@H](N)C(=O)O; Dab = NCC[C@H](N)C(=O)O; Dap = NC[C@H](N)C(=O)O
# What was measured:
# Assay type in all cases: cell-based
# A. Baumanni (ATCC 19606) = conditions: ATCC 19606
# Method: (§1) Compounds were prepared according to scheme 2, 3, 4, 6, 7, or 8 above, preparing different sets of compounds with different substitution patterns. All polymyxin analogues prepared were tested for their anti-bacterial activity on relevant Gram-negative strains (Table B). Polymyxin B and PMBN were taken along as references. In addition, the toxicity on renal Proximal Tubular Epithelial Cells (PTECs) was evaluated.
# (§2) 3rd Generation compounds were also subjected to testing for their anti-bacterial activity on relevant Gram-negative strains (Table C). Polymyxin B and PMBN were taken along as references. In addition, the toxicity on renal Proximal Tubular Epithelial Cells (PTECs) was evaluated, see Table C.
# E. Coli (ATCC 25922) = conditions: ATCC 25922
# Method: as §1, §2
# [1] = test system: K. Pneumoniae (ATCC 13883); conditions: ATCC 13883
# Method: as §1, §2
# [2] = test system: P. Aeruginosa (ATCC 27853); conditions: ATCC 27853
# Method: as §1, §2
# [3] = test system: renal Proximal Tubular Epithelial Cells (PTECs); assay: Toxicity on renal Proximal Tubular Epithelial Cells
# Method: as §1, §2
SMILES,MIC A. Baumanni (ATCC 19606) (A. Baumanni (ATCC 19606)),MIC E. Coli (ATCC 25922) (E. Coli (ATCC 25922)),MIC K. Pneumoniae (ATCC 13883) [1],MIC P. Aeruginosa (ATCC 27853) [2],PTEC Toxicity (relative to polymyxin B) [3]
CC(C)C[C@@H]1NC(=O)[C@@H](Cc2ccccc2)NC(=O)[C@H](CCN)NC(=O)[C@@H](NC(=O)CNC(=O)[C@@H](NC(=O)[C@H](N)CSSCCC2CCCCC2)[C@@H](C)O)CCNC(=O)[C@H]([C@@H](C)O)NC(=O)[C@H](CCN)NC(=O)[C@H](CCN)NC1=O (H-[dC](S(2-cyclohexylethyl))TG[Dab][Dab][dF]L[Dab][Dab]T; lactam 4-C),0.5 µg/mL,2 µg/mL,1 µg/mL,2 µg/mL,7.4
CC(C)C[C@@H]1NC(=O)[C@@H](Cc2ccccc2)NC(=O)[C@H](CCN)NC(=O)[C@@H](NC(=O)[C@H](CN)NC(=O)[C@@H](NC(=O)[C@H](N)CSSCCC2CCCCC2)[C@@H](C)O)CCNC(=O)[C@H]([C@@H](C)O)NC(=O)[C@H](CCN)NC(=O)[C@H](CCN)NC1=O (H-[dC](S(2-cyclohexylethyl))T[Dap][Dab][Dab][dF]L[Dab][Dab]T; lactam 4-C),0.5 µg/mL,1 µg/mL,1 µg/mL,2 µg/mL,2.9
CC(C)C[C@@H]1NC(=O)[C@@H](Cc2ccccc2)NC(=O)[C@H](CCN)NC(=O)[C@@H](NC(=O)[C@@H](CCN)NC(=O)[C@@H](NC(=O)[C@H](N)CSSCCC2CCCCC2)[C@@H](C)O)CCNC(=O)[C@H]([C@@H](C)O)NC(=O)[C@H](CCN)NC(=O)[C@H](CCN)NC1=O (H-[dC](S(2-cyclohexylethyl))T[dDab][Dab][Dab][dF]L[Dab][Dab]T; lactam 4-C),0.5 µg/mL,2 µg/mL,1 µg/mL,2 µg/mL,4.8
CC(C)C[C@@H]1NC(=O)[C@@H](Cc2ccccc2)NC(=O)[C@H](CCN)NC(=O)[C@@H](NC(=O)[C@@H](CN)NC(=O)[C@@H](NC(=O)[C@H](N)CSSCCC2CCCCC2)[C@@H](C)O)CCNC(=O)[C@H]([C@@H](C)O)NC(=O)[C@H](CCN)NC(=O)[C@H](CCN)NC1=O (H-[dC](S(2-cyclohexylethyl))T[dDap][Dab][Dab][dF]L[Dab][Dab]T; lactam 4-C),0.5 µg/mL,2 µg/mL,1 µg/mL,2 µg/mL,5.4
CC(C)C[C@@H]1NC(=O)[C@@H](Cc2ccccc2)NC(=O)[C@H](CCN)NC(=O)[C@@H](NC(=O)[C@@H](CO)NC(=O)[C@@H](NC(=O)[C@H](N)CSSCCC2CCCCC2)[C@@H](C)O)CCNC(=O)[C@H]([C@@H](C)O)NC(=O)[C@H](CCN)NC(=O)[C@H](CCN)NC1=O (H-[dC](S(2-cyclohexylethyl))T[dS][Dab][Dab][dF]L[Dab][Dab]T; lactam 4-C),0.25 µg/mL,2 µg/mL,1 µg/mL,4 µg/mL,3.3
CC(C)CCSSC[C@@H](N)C(=O)N[C@H](C(=O)NCC(=O)N[C@H]1CCNC(=O)[C@H]([C@@H](C)O)NC(=O)[C@H](CCN)NC(=O)[C@H](CCN)NC(=O)[C@H](CC(C)C)NC(=O)[C@@H](Cc2ccccc2)NC(=O)[C@H](CCN)NC1=O)[C@@H](C)O (H-[dC](S(3-Methylbutyl))TG[Dab][Dab][dF]L[Dab][Dab]T; lactam 4-C),0.5 µg/mL,2 µg/mL,0.5 µg/mL,4 µg/mL,26.8

# More lines, main results first:
MIC A. Baumanni (ATCC 19606) (A. Baumanni (ATCC 19606)),MIC E. Coli (ATCC 25922) (E. Coli (ATCC 25922)),MIC K. Pneumoniae (ATCC 13883) [1],MIC P. Aeruginosa (ATCC 27853) [2],SMILES,PTEC Toxicity (relative to polymyxin B) [3]
1 µg/mL,2 µg/mL,1 µg/mL,4 µg/mL,CC(C)C[C@@H]1NC(=O)[C@@H](Cc2ccccc2)NC(=O)[C@H](CCN)NC(=O)[C@@H](NC(=O)CNC(=O)[C@@H](NC(=O)[C@H](N)CSSCc2cccc(Cl)c2)[C@@H](C)O)CCNC(=O)[C@H]([C@@H](C)O)NC(=O)[C@H](CCN)NC(=O)[C@H](CCN)NC1=O (H-[dC](S(3-Cl-benzyl))TG[Dab][Dab][dF]L[Dab][Dab]T; lactam 4-C),7.4
0.5 µg/mL,2 µg/mL,0.5 µg/mL,4 µg/mL,CC(C)C[C@@H]1NC(=O)[C@@H](Cc2ccccc2)NC(=O)[C@H](CCN)NC(=O)[C@@H](NC(=O)[C@H](CN)NC(=O)[C@@H](NC(=O)[C@H](N)CSSCc2cccc(Cl)c2)[C@@H](C)O)CCNC(=O)[C@H]([C@@H](C)O)NC(=O)[C@H](CCN)NC(=O)[C@H](CCN)NC1=O (H-[dC](S(3-Cl-benzyl))T[Dap][Dab][Dab][dF]L[Dab][Dab]T; lactam 4-C),4.8
0.5 µg/mL,2 µg/mL,1 µg/mL,2 µg/mL,CC(C)C[C@@H]1NC(=O)[C@@H](Cc2ccccc2)NC(=O)[C@H](CCN)NC(=O)[C@@H](NC(=O)[C@@H](CCN)NC(=O)[C@@H](NC(=O)[C@H](N)CSSCc2cccc(Cl)c2)[C@@H](C)O)CCNC(=O)[C@H]([C@@H](C)O)NC(=O)[C@H](CCN)NC(=O)[C@H](CCN)NC1=O (H-[dC](S(3-Cl-benzyl))T[dDab][Dab][Dab][dF]L[Dab][Dab]T; lactam 4-C),7.0
0.5 µg/mL,2 µg/mL,0.5 µg/mL,1 µg/mL,CC(C)C[C@@H]1NC(=O)[C@@H](Cc2ccccc2)NC(=O)[C@H](CCN)NC(=O)[C@@H](NC(=O)[C@@H](CN)NC(=O)[C@@H](NC(=O)[C@H](N)CSSCc2cccc(Cl)c2)[C@@H](C)O)CCNC(=O)[C@H]([C@@H](C)O)NC(=O)[C@H](CCN)NC(=O)[C@H](CCN)NC1=O (H-[dC](S(3-Cl-benzyl))T[dDap][Dab][Dab][dF]L[Dab][Dab]T; lactam 4-C),5.7
0.5 µg/mL,2 µg/mL,1 µg/mL,4 µg/mL,CC(C)C[C@@H]1NC(=O)[C@@H](Cc2ccccc2)NC(=O)[C@H](CCN)NC(=O)[C@@H](NC(=O)[C@@H](CO)NC(=O)[C@@H](NC(=O)[C@H](N)CSSCc2cccc(Cl)c2)[C@@H](C)O)CCNC(=O)[C@H]([C@@H](C)O)NC(=O)[C@H](CCN)NC(=O)[C@H](CCN)NC1=O (H-[dC](S(3-Cl-benzyl))T[dS][Dab][Dab][dF]L[Dab][Dab]T; lactam 4-C),6.7
0.25 µg/mL,1 µg/mL,0.25 µg/mL,1 µg/mL,CC(C)CCSSC[C@@H](N)C(=O)N[C@H](C(=O)N[C@@H](CN)C(=O)N[C@H]1CCNC(=O)[C@H]([C@@H](C)O)NC(=O)[C@H](CCN)NC(=O)[C@H](CCN)NC(=O)[C@H](CC(C)C)NC(=O)[C@@H](Cc2ccccc2)NC(=O)[C@H](CCN)NC1=O)[C@@H](C)O (H-[dC](S(3-Methylbutyl))T[Dap][Dab][Dab][dF]L[Dab][Dab]T; lactam 4-C),20.1
